Reference: ChEMBL document CHEMBL4800730 (2021)
Active and inactive are the calls of the source. The calls are words filed in the database; no cut-off is given here.

Legend:
Histamine H2 receptor = Histamine H2 receptor (Homo sapiens, UniProt P25021); conditions: Compound concentration 10.0 uM
[1] = biological target: Receptor tyrosine-protein kinase erbB-2 (Homo sapiens) (UniProt P04626); assay: ERBB2 (HER2) SelectScreen Kinase panel (LifeTechnologies); conditions: Compound concentration 1.0 uM
[2] = biological target: Fibroblast growth factor receptor 1 (Homo sapiens) (UniProt P11362); assay: FGFR1 SelectScreen Kinase panel (LifeTechnologies); conditions: Compound concentration 1.0 uM
Fibroblast growth factor receptor 1 (Homo sapiens), sequence (P11362 22-822 limits assumed): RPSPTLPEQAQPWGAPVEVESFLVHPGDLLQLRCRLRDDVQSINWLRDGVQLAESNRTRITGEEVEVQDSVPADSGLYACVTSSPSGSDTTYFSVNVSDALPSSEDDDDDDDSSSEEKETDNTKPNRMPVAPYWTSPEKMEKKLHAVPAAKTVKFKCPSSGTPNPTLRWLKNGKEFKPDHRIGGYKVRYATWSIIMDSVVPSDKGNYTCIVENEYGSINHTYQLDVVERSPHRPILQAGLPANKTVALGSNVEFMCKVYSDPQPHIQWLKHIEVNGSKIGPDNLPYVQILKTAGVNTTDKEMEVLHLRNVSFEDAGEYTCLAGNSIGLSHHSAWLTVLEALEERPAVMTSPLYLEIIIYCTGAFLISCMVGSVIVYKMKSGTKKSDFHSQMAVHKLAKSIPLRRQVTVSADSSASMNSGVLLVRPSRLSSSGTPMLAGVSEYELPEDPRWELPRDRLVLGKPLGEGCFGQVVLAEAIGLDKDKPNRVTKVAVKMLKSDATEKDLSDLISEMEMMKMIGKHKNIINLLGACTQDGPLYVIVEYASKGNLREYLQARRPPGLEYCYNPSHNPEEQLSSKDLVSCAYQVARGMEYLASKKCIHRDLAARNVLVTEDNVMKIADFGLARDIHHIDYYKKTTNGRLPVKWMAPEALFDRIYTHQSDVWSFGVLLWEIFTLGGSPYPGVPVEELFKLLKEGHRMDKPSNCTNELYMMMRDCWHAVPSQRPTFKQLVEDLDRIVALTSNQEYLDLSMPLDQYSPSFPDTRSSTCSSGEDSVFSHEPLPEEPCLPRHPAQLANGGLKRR

[3] = biological target: Serine/threonine-protein kinase TBK1 (Homo sapiens) (UniProt Q9UHD2); assay: TBK1 SelectScreen Kinase panel (LifeTechnologies); conditions: Compound concentration 1.0 uM
[4] = biological target: Calcium/calmodulin-dependent protein kinase type 1D (Homo sapiens) (UniProt Q8IU85); assay: CAMK1D (CaMKI delta) SelectScreen Kinase panel (LifeTechnologies); conditions: Compound concentration 1.0 uM
[5] = biological target: ALK tyrosine kinase receptor (Homo sapiens) (UniProt Q9UM73); assay: ALK SelectScreen Kinase panel (LifeTechnologies); conditions: Compound concentration 1.0 uM
[6] = biological target: Serine/threonine-protein kinase PLK1 (Homo sapiens) (UniProt P53350); assay: PLK1 SelectScreen Kinase panel (LifeTechnologies); conditions: Compound concentration 1.0 uM
Serine/threonine-protein kinase PLK1 (Homo sapiens), sequence (P53350 whole entry): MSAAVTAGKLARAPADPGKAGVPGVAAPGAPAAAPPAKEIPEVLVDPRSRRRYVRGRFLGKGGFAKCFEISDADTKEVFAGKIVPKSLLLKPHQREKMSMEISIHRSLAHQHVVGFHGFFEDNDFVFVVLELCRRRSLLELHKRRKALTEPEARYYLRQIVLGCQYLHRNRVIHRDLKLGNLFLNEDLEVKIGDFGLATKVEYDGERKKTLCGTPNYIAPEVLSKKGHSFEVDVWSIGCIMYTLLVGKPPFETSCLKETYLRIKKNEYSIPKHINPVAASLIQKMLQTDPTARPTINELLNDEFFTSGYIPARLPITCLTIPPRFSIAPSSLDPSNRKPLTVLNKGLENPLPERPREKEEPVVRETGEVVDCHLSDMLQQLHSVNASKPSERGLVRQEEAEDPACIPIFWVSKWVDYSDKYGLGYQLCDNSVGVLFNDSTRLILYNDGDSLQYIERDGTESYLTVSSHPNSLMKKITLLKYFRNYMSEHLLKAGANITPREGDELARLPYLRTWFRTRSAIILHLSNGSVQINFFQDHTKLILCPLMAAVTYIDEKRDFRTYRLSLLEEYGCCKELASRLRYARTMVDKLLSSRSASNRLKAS

[7] = biological target: 5-hydroxytryptamine receptor 1B (Homo sapiens) (UniProt P28222); conditions: Compound concentration 10.0 uM
5-hydroxytryptamine receptor 1B (Homo sapiens), sequence (P28222 whole entry): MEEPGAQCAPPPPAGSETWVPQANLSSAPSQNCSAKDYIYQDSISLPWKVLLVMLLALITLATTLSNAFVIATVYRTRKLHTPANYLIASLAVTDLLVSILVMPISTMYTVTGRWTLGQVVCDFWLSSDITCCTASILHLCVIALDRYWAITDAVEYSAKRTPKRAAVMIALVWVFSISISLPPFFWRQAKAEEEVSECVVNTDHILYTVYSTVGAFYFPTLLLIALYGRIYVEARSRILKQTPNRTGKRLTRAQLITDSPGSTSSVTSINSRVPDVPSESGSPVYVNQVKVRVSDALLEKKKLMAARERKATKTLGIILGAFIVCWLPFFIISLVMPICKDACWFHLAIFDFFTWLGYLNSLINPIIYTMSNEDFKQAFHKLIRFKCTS

[8] = biological target: Protein kinase C zeta type (Homo sapiens) (UniProt Q05513); assay: PRKCZ (PKC zeta) SelectScreen Kinase panel (LifeTechnologies); conditions: Compound concentration 1.0 uM
Protein kinase C zeta type (Homo sapiens), sequence (Q05513 whole entry): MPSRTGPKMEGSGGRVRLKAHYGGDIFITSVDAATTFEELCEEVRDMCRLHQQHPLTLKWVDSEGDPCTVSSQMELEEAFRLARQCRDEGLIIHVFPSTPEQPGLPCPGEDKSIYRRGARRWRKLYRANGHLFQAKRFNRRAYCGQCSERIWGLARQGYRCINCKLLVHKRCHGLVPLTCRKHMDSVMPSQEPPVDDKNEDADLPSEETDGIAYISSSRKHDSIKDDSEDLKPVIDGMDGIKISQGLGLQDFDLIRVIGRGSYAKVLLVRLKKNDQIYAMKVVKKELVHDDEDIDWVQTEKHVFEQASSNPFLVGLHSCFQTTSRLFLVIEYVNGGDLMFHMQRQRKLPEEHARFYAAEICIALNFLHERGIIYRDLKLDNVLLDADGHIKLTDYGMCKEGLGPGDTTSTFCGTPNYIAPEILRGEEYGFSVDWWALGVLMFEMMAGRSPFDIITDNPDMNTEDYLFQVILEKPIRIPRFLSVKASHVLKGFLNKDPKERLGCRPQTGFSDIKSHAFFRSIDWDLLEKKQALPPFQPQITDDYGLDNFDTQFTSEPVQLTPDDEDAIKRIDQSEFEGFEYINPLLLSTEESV

[9] = biological target: 5-hydroxytryptamine receptor 1E (Homo sapiens) (UniProt P28566); conditions: Compound concentration 10.0 uM
[10] = biological target: 5-hydroxytryptamine receptor 5A (Homo sapiens) (UniProt P47898); conditions: Compound concentration 10.0 uM
[11] = biological target: Ribosomal protein S6 kinase beta-1 (Homo sapiens) (UniProt P23443); assay: RPS6KB1 (p70S6K) SelectScreen Kinase panel (LifeTechnologies); conditions: Compound concentration 1.0 uM
[12] = biological target: D(3) dopamine receptor (Homo sapiens) (UniProt P35462); conditions: Compound concentration 10.0 uM
[13] = biological target: Serine/threonine-protein kinase D3 (Homo sapiens) (UniProt O94806); assay: PRKCN (PKD3) SelectScreen Kinase panel (LifeTechnologies); conditions: Compound concentration 1.0 uM
[14] = biological target: Histamine H1 receptor (Homo sapiens) (UniProt P35367); conditions: Compound concentration 10.0 uM
[15] = biological target: 5-hydroxytryptamine receptor 3A (Homo sapiens) (UniProt P46098); conditions: Compound concentration 10.0 uM
[16] = GPCRScan assay: inhibition of GABA/PBR; set-up: species or system Rattus norvegicus; radioligand conc. used [nm] 0.3 – 2.0, parental cells brain tissue
[17] = biological target: Protein kinase C iota type (Homo sapiens) (UniProt P41743); assay: PRKCI (PKC iota) SelectScreen Kinase panel (LifeTechnologies); conditions: Compound concentration 1.0 uM
[18] = biological target: Muscarinic acetylcholine receptor M5 (Homo sapiens) (UniProt P08912); conditions: Compound concentration 10.0 uM
[19] = biological target: GABA-A receptor; anion channel (Rattus norvegicus) (UniProt O09028+P15431+P18506+P18508+P19969+P20236+P23574+P23576+P28471+P28473+P30191+P62813+P63079+P63138+Q91ZM7+Q9ES14); conditions: Compound concentration 10.0 uM
[20] = biological target: Serine/threonine-protein kinase BRSK1 (Homo sapiens) (UniProt Q8TDC3); assay: BRSK1 (SAD1) SelectScreen Kinase panel (LifeTechnologies); conditions: Compound concentration 1.0 uM
[21] = biological target: Serine/threonine-protein kinase 4 (Homo sapiens) (UniProt Q13043); assay: STK4 (MST1) SelectScreen Kinase panel (LifeTechnologies); conditions: Compound concentration 1.0 uM
[22] = biological target: Protein kinase C gamma type (Homo sapiens) (UniProt P05129); assay: PRKCG (PKC gamma) SelectScreen Kinase panel (LifeTechnologies); conditions: Compound concentration 1.0 uM
[23] = biological target: Alpha-2A adrenergic receptor (Homo sapiens) (UniProt P08913); conditions: Compound concentration 10.0 uM
Alpha-2A adrenergic receptor (Homo sapiens), sequence (P08913 whole entry): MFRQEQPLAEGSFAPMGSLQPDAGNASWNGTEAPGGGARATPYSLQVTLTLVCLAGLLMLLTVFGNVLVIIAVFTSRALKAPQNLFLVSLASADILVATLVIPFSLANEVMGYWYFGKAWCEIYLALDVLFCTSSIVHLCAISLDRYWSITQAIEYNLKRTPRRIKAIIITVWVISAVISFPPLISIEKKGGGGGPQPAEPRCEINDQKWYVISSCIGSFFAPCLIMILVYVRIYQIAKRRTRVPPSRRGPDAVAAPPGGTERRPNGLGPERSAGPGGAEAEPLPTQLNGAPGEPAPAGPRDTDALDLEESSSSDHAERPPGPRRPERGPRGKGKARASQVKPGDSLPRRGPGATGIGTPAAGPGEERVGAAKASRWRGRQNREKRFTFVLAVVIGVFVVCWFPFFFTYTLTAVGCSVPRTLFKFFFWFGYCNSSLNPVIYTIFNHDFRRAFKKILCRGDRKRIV

[24] = biological target: Serine/threonine-protein kinase MARK2 (Homo sapiens) (UniProt Q7KZI7); assay: MARK2 SelectScreen Kinase panel (LifeTechnologies); conditions: Compound concentration 1.0 uM
BT-474 = assay: CellTiter-Glo luminescent cell viability assay (CTG) with BT-474 cells; type: functional, cell-based; conditions: Homo sapiens
[25] = biological target: D(4) dopamine receptor (Homo sapiens) (UniProt P21917); conditions: Compound concentration 10.0 uM
[26] = biological target: Cyclin-dependent kinase 2/cyclin A (Homo sapiens) (UniProt P24941+P20248+P78396); assay: CDK2/cyclin A SelectScreen Kinase panel (LifeTechnologies); type: protein-complex assay; conditions: Compound concentration 1.0 uM
[27] = biological target: Histamine H3 receptor (Homo sapiens) (UniProt Q9Y5N1); conditions: Compound concentration 10.0 uM
[28] = biological target: Tyrosine-protein kinase TXK (Homo sapiens) (UniProt P42681); assay: TXK SelectScreen Kinase panel (LifeTechnologies); conditions: Compound concentration 1.0 uM
[29] = biological target: Protein kinase C theta type (Homo sapiens) (UniProt Q04759); assay: PRKCQ (PKC theta) SelectScreen Kinase panel (LifeTechnologies); conditions: Compound concentration 1.0 uM
[30] = biological target: Serine/threonine-protein kinase Sgk1 (Homo sapiens) (UniProt O00141); assay: SGK (SGK1) SelectScreen Kinase panel (LifeTechnologies); conditions: Compound concentration 1.0 uM
[31] = biological target: Mitogen-activated protein kinase kinase kinase kinase 5 (Homo sapiens) (UniProt Q9Y4K4); assay: MAP4K5 (KHS1) SelectScreen Kinase panel (LifeTechnologies); conditions: Compound concentration 1.0 uM
[32] = biological target: Protein kinase C alpha type (Homo sapiens) (UniProt P17252); assay: PRKCA (PKC alpha) SelectScreen Kinase panel (LifeTechnologies); conditions: Compound concentration 1.0 uM
[33] = biological target: Calcium/calmodulin-dependent protein kinase type IV (Homo sapiens) (UniProt Q16566); assay: CAMK4 (CaMKIV) SelectScreen Kinase panel (LifeTechnologies); conditions: Compound concentration 1.0 uM
[34] = biological target: Protein kinase C eta type (Homo sapiens) (UniProt P24723); assay: PRKCH (PKC eta) SelectScreen Kinase panel (LifeTechnologies); conditions: Compound concentration 1.0 uM
[35] = biological target: Maternal embryonic leucine zipper kinase (Homo sapiens) (UniProt Q14680); assay: MELK SelectScreen Kinase panel (LifeTechnologies); conditions: Compound concentration 1.0 uM
[36] = biological target: Receptor-type tyrosine-protein kinase FLT3 (Homo sapiens) (UniProt P36888); assay: FLT3 SelectScreen Kinase panel (LifeTechnologies); conditions: Compound concentration 1.0 uM
[37] = biological target: Proto-oncogene tyrosine-protein kinase receptor Ret (Homo sapiens) (UniProt P07949); assay: RET SelectScreen Kinase panel (LifeTechnologies); conditions: Compound concentration 1.0 uM
[38] = biological target: Sodium-dependent dopamine transporter (Homo sapiens, UniProt Q01959); assay: GPCRScan assay: inhibition of DAT; set-up: radioligand conc. used [nm] 3.6 – 16.0, parental cells stable HEK
Sodium-dependent dopamine transporter, sequence (Q01959 whole entry): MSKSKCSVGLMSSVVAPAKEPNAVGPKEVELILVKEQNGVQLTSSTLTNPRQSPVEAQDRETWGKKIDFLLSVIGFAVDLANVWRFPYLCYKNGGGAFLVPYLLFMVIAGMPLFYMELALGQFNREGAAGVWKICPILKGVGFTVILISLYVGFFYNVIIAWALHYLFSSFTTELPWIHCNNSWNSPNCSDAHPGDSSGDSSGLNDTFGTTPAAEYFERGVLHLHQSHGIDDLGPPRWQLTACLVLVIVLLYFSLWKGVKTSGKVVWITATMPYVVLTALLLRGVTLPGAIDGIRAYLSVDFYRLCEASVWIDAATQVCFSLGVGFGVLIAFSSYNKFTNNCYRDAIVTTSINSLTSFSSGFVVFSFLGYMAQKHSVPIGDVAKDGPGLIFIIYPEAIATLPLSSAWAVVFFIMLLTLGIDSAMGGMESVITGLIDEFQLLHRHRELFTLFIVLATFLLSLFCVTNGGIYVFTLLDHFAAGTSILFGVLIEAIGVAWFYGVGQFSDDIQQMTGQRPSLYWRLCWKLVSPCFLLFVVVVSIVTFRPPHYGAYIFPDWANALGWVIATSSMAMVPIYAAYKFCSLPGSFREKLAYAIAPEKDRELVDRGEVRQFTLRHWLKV

[39] = biological target: G protein-coupled receptor kinase 4 (Homo sapiens) (UniProt P32298); assay: GRK4 SelectScreen Kinase panel (LifeTechnologies); conditions: Compound concentration 1.0 uM
[40] = biological target: Serine/threonine-protein kinase Nek1 (Homo sapiens) (UniProt Q96PY6); assay: NEK1 SelectScreen Kinase panel (LifeTechnologies); conditions: Compound concentration 1.0 uM
Serine/threonine-protein kinase Nek1 (Homo sapiens), sequence (Q96PY6 whole entry): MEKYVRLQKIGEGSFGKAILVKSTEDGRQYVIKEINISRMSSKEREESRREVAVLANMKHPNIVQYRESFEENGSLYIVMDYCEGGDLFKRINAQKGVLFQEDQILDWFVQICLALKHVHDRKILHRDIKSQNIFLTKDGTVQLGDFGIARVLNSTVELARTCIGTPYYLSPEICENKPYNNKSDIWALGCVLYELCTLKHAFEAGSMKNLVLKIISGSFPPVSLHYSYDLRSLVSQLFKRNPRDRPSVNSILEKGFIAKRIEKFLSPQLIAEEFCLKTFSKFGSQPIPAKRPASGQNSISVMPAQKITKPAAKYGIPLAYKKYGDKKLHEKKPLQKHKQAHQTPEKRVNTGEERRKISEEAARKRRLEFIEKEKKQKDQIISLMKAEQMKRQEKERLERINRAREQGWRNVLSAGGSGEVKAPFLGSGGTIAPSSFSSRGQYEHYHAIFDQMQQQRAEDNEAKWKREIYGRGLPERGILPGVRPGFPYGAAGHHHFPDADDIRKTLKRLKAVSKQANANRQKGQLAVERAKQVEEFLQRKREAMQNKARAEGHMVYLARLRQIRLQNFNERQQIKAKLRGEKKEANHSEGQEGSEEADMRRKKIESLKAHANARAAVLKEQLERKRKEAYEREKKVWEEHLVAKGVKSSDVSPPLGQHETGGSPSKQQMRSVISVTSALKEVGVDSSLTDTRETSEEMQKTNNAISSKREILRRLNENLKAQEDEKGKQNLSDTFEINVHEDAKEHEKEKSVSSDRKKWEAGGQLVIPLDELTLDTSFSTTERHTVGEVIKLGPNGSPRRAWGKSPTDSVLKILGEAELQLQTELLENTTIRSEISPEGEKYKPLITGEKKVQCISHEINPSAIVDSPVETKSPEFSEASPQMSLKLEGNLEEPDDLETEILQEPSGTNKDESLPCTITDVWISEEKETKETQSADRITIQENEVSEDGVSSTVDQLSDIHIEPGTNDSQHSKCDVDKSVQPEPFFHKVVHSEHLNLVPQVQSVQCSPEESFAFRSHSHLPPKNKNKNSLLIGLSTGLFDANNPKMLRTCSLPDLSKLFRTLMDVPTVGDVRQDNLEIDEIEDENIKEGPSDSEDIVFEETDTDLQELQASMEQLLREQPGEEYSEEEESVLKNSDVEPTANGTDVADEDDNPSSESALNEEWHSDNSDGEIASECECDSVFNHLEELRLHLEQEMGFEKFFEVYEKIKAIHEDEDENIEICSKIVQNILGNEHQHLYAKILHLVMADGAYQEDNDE

[41] = biological target: Rho-associated protein kinase 1 (Homo sapiens) (UniProt Q13464); assay: ROCK1 SelectScreen Kinase panel (LifeTechnologies); conditions: Compound concentration 1.0 uM
[42] = biological target: D(1B) dopamine receptor (Homo sapiens) (UniProt P21918); conditions: Compound concentration 10.0 uM

Compound: C=CC(=O)Nc1ccc2[nH]c(=O)n(C3CCN(Cc4ccc(-c5nc6cc[nH]c(=O)c6cc5-c5ccccc5)cc4)CC3)c2c1 [Borussertib]
- inhibition (Histamine H2 receptor): 65.1%
- inhibition [1]: -3%
- inhibition [2]: 25%
- inhibition [3]: 6%
- inhibition [4]: 9%
- inhibition [5]: -2%
- inhibition [6]: -3%
- inhibition [7]: 35.6%
- inhibition [8]: -1%
- inhibition [9]: 18%
- inhibition [10]: 19.4%
- inhibition [11]: 2%
- inhibition [12]: 20.9%
- inhibition [13]: 14%
- inhibition [14]: 23.8%
- inhibition [15]: 30.2%
- Ki [16]: 0.0573 µM
- pKi [16]: 7.24
- inhibition [17]: 6%
- inhibition [18]: 11.8%
- inhibition [19]: 12.3%
- inhibition [20]: 7%
- inhibition [21]: -1%
- inhibition [22]: 17%
- inhibition [23]: 9.04%
- inhibition [24]: -2%
- EC50 (BT-474): 0.37 µM (active)
- inhibition [25]: 10%
- inhibition [26]: 1%
- inhibition [27]: 6.51%
- inhibition [28]: 8%
- inhibition [29]: 35%
- inhibition [30]: 20%
- inhibition [31]: 37%
- inhibition [32]: 10%
- inhibition [33]: 12%
- inhibition [34]: -2%
- inhibition [35]: 30%
- inhibition [36]: 17%
- inhibition [37]: 7%
- Ki ([38]; read-out: Ki): 3.66 µM
- Ki ([38]; read-out: pKi (converted)): 3.63 µM
- inhibition [39]: 8%
- inhibition [40]: 8%
- inhibition [41]: 9%
- inhibition [42]: 28.8%
